The target of assay [1] is T1, human LPA1 (Homo sapiens, UniProt Q92633).
T1 construct: the full-length cDNA for human LPA1 was obtained by PCR of the reverse transcription reaction; expressed in transfected cells
Kind of assay: LPA1 calcium flux assay. The note with it: CHO cells expressing human LPA1, stimulated with 10 nM LPA; read-out: HLPA1 Ca Flux IC50. It is filed as cell-based. Put shortly:
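CHO cells stably expressing cloned human LPA1, serum-starved overnight, loaded with Calcium 4 dye 1 h at 37 °C in HBSS/20 mM Hepes with 0.3% fatty-acid-free HSA. Compounds preincubated 30 min at room temperature, then cells stimulated with 10 nM LPA; intracellular Ca2+ read by fluorescence. IC50 from titration curves.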

For assay [2], the system named is A2058 human melanoma cells. Kind of assay: LPA1 chemotaxis assay. Format: cell-based. The conditions noted are these: LPA 100 nM, read-out: IC50, inhibition of LPA-driven chemotaxis. The procedure:
Chemotaxis of the A2058 human melanoma cells was measured using the Neuroprobe ChemoTx® System plates (8 μm pore size, 5.7 mm diameter sites). The filter sites were coated with 0.001% fibronectin (Sigma) in 20 mM Hepes, pH 7.4 and allowed to dry. A2058 cells were serum-starved for 24 hours, then harvested with Cell Stripper and resuspended in DMEM containing 0.1% fatty-acid-free bovine serum albumin (BSA) to a concentration of 1×10^6/ml. Cells were mixed with an equal volume of test compound (2×) in DMEM containing 0.1% fatty-acid-free BSA and incubated at 37° C. for 15 minutes. LPA (100 nM in DMEM containing 0.1% fatty-acid-free BSA) or vehicle was added to each well of the lower chamber and 50 μl of the cell suspension/test compound mix was applied to the upper portion of the ChemoTx plate. Plates were incubated at 37° C. for three hours and then the cells removed from the upper portion by rinsing with PBS and scraping. The filter was dried then stained with HEMA 3 Staining System (Fisher Scientific). The absorbance of the filter was read at 590 nm and IC50s were determined using Symyx Assay Explorer.

Assay [3] concerns nerve-injured mice. The note with it: pretreatment; cited from earlier work.
Assay [4] has as its system human foetal lung fibroblasts. The conditions noted are these: BAL obtained from IPF patients; cited from earlier work.
Assay [5] concerns UUO mice. The note with it: UUO mice treated with antagonist; cited from earlier work.
Assay [6] has as its system mouse epithelial renal cell line, MCT. The conditions noted are these: MCT cells, co-treatment with LPA; cited from earlier work.
The subject of assay [7] is pancreatic cancer cell lines. The note with it: LPA and peritoneal fluid (ascites) from pancreatic cancer patients; cited from earlier work.
In assay [8] the test system is highly peritoneal metastatic pancreatic cancer cell line. The note with it: cited from earlier work.

T1 sequence (Q92633 whole entry): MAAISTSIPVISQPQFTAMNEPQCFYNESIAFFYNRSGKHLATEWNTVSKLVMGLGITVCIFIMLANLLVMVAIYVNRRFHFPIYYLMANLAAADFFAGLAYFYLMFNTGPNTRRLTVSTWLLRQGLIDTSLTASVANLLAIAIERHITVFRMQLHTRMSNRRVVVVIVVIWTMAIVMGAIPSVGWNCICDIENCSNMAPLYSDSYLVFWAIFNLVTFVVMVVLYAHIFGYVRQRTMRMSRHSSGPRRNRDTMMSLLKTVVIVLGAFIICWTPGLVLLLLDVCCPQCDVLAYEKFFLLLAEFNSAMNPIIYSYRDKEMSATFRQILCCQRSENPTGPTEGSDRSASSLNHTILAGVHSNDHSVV

`Cc1noc(-c2ccc(-c3ccc(C4(C(=O)O)CC4)cc3)cc2)c1C(O)CCCc1ccccc1` (single isomer, unassigned) [Compound 1-155, 1-{4′-[4-(1-Hydroxy-4-phenyl-butyl)-3-methyl-isoxazol-5-yl]-biphenyl-4-yl}-cyclopropanecarboxylic acid]: the IC50 was less than 300 nM in assay [1] and less than 100 nM in assay [2]. On to `Cc1noc(-c2ccc(-c3ccc(C4(C(=O)O)CC4)cc3)cc2)c1C(O)C(F)(F)CCc1ccccc1` (single isomer, unassigned) [Compound 1-255, 1-{4′-[4-(2,2-Difluoro-1-hydroxy-4-phenyl-butyl)-3-methyl-isoxazol-5-yl]-biphenyl-4-yl}-cyclopropanecarboxylic acid], for which the IC50 in assay [1] was less than 300 nM; in assay [2] it was less than 100 nM.

Turning to `Cc1noc(-c2ccc(-c3ccc(C4(C(=O)O)CC4)cc3)cc2)c1C(O)CCCc1ccccc1` (stereo not drawn) [Compound 1-116, 1-{4′-[4-(1-Hydroxy-4-phenyl-butyl)-3-methyl-isoxazol-5-yl]-biphenyl-4-yl}-cyclopropanecarboxylic acid], in assay [2], the 50% inhibitory concentration (IC50) was less than 100 nM. Still for that read-out and setting: then `Cc1noc(-c2ccc(-c3ccc(C4(C(=O)O)CC4)cc3)cc2)c1C(O)C(F)(F)CCc1ccccc1` (stereo not drawn) [Compound 1-178, 1-{4′-[4-(2,2-Difluoro-1-hydroxy-4-phenyl-butyl)-3-methyl-isoxazol-5-yl]-biphenyl-4-yl}-cyclopropanecarboxylic acid], with less than 100 nM.

As for `Cc1ccc(S(=O)(=O)NC(=O)Nc2c(C)noc2-c2ccc(-c3ccc(C4(C(=O)NS(=O)(=O)c5ccc(C)cc5)CC4)cc3)cc2)cc1` [Compound 2-5, 4-Methyl-N-(1-{4′-[3-methyl-4-(3-p-tolunesulfonyl-ureido)-isoxazol-5-yl]-biphenyl-4-yl}-cyclopropanecarbonyl)-benzenesulfonamide], in assay [1], the half-inhibitory concentration (IC50) is more than 50000 nM. On the same count and under the same terms, then `Cc1noc(-c2ccc(-c3ccc(C4(C(=O)NS(=O)(=O)C5CC5)CC4)cc3)cc2)c1NC(=O)NS(=O)(=O)C1CC1` [Compound 2-6, Cyclopropanesulfonic acid (1-{4′-[4-(3-cyclopropylsulfonyl-ureido)-3-methyl-isoxazol-5-yl]-biphenyl-4-yl}-cyclopropanecarbonyl)-amide], with 1000 to 50000 nM; and `Cc1cccc(SCC(O)c2c(C)noc2-c2ccc(-c3ccc(C4(C(=O)NS(C)(=O)=O)CC4)cc3)cc2)c1` (stereo not drawn) [Compound 2-13, N-(1-{4′-[4-(1-Hydroxy-2-m-tolylsulfanyl-ethyl)-3-methyl-isoxazol-5-yl]-biphenyl-4-yl}-cyclopropanecarbonyl)-methanesulfonamide], with less than 300 nM. The same measure, in the same setting: as for `COc1cccc(SCC(O)c2c(C)noc2-c2ccc(-c3ccc(C4(C(=O)NS(C)(=O)=O)CC4)cc3)cc2)c1` (stereo not drawn) [Compound 2-14, N-[1-(4′-{4-[1-Hydroxy-2-(3-methoxy-phenylsulfanyl)-ethyl]-3-methyl-isoxazol-5-yl}-biphenyl-4-yl)-cyclopropanecarbonyl]-methanesulfonamide], the figure is 300 to 1000 nM; as for `Cc1noc(-c2ccc(-c3ccc(C4(CC(=O)NS(C)(=O)=O)CC4)cc3)cc2)c1C(CCCc1ccccc1)OC(=O)NS(C)(=O)=O` (stereo not drawn) [Compound 2-15, N-Sulfonylmethyl carbamic acid 1-(5-{4′-[1-(2-methanesulfonylamino-2-oxo-ethyl)-cyclopropyl]-biphenyl-4-yl}-3-methyl-isoxazol-4-yl)-4-phenyl-butyl ester], 300 to 1000 nM.

As for `Cc1noc(-c2ccc(-c3ccc(C4(CC(=O)NS(C)(=O)=O)CC4)cc3)cc2)c1C(O)CCCc1ccccc1` (stereo not drawn) [Compound 2-16, N-[2-(1-{4′-[4-(1-Hydroxy-4-phenyl-butyl)-3-methyl-isoxazol-5-yl]-biphenyl-4-yl}-cyclopropyl)-acetyl]-methanesulfonamide], in assay [1], the IC50 was less than 300 nM. For the molecule `C[C@@H](N)[C@H]1CC[C@H](C(=O)Nc2ccncc2)CC1` [Compound Y-27632], in assay [3], the allodynia and hyperalgesia entry is “completely abolished”. Take `Cc1noc(-c2ccc(CSCCC(=O)O)cc2)c1NC(=O)OC(C)c1ccccc1Cl` (stereo not drawn) [Ki16425]: the “chemotaxis of human foetal lung fibroblasts induced by BAL from IPF patients” value in assay [4] was “blocked”. Also, in assay [5], the “development of renal fibrosis in UUO mice” value is “closely resembled the LPA1 (−/−) mice”. In addition, the “LPA-induced increase in CTGF expression” value in assay [6] is listed as “almost completely suppressed”. The “in vitro migration in response to LPA and ascites” value in assay [7] is “effectively blocked”. The “LPA-induced and ascites-induced invasion activity” value in assay [8] is given as “blocked”.

In general, IC50 refers to the concentration needed to halve the response being measured.

Values taken from patent publication US9624182B2, “Compounds as lysophosphatidic acid receptor antagonists” (Amira Pharmaceuticals, Inc., priority 2009, dated 2017).
